In ChEMBL document CHEMBL3991601, “The target landscape of clinical kinase drugs” (Science, 2017):
Activity calls are given as the source filed them.

How the values were obtained:
[1] = target: Bone morphogenetic protein receptor type-1A (Homo sapiens, UniProt P36894)
[2] = target: Serine/threonine-protein kinase MRCK gamma (Homo sapiens, UniProt Q6DT37)
[3] = target: Chromodomain-helicase-DNA-binding protein 4 (Homo sapiens, UniProt Q14839)
[4] = target: Dual specificity protein kinase CLK2 (Homo sapiens, UniProt P49760)
[5] = target: Epidermal growth factor receptor (Homo sapiens, UniProt P00533)
[6] = target: T1, Mitogen-activated protein kinase kinase kinase 3 (Homo sapiens, UniProt Q99759)
T1 sequence (Q99759 whole entry): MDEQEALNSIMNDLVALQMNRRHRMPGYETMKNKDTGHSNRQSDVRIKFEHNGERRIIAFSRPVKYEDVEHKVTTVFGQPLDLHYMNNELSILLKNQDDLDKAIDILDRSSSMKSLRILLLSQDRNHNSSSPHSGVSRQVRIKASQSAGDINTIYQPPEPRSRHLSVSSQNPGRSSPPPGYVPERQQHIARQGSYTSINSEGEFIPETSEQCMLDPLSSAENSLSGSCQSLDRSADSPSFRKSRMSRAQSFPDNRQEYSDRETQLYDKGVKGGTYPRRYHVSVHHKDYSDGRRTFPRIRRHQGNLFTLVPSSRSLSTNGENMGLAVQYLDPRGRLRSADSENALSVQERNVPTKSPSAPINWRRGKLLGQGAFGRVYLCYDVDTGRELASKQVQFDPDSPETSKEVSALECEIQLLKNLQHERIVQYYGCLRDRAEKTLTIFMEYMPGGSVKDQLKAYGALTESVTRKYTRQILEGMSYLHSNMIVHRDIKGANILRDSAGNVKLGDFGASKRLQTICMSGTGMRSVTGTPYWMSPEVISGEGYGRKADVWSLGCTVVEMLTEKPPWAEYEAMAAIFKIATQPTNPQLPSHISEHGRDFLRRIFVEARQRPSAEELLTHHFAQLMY

[7] = target: Mitogen-activated protein kinase 14 (Homo sapiens, UniProt Q16539)
[8] = target: Hepatocyte growth factor receptor (Homo sapiens, UniProt P08581)
Chain of Hepatocyte growth factor receptor (P08581 whole entry): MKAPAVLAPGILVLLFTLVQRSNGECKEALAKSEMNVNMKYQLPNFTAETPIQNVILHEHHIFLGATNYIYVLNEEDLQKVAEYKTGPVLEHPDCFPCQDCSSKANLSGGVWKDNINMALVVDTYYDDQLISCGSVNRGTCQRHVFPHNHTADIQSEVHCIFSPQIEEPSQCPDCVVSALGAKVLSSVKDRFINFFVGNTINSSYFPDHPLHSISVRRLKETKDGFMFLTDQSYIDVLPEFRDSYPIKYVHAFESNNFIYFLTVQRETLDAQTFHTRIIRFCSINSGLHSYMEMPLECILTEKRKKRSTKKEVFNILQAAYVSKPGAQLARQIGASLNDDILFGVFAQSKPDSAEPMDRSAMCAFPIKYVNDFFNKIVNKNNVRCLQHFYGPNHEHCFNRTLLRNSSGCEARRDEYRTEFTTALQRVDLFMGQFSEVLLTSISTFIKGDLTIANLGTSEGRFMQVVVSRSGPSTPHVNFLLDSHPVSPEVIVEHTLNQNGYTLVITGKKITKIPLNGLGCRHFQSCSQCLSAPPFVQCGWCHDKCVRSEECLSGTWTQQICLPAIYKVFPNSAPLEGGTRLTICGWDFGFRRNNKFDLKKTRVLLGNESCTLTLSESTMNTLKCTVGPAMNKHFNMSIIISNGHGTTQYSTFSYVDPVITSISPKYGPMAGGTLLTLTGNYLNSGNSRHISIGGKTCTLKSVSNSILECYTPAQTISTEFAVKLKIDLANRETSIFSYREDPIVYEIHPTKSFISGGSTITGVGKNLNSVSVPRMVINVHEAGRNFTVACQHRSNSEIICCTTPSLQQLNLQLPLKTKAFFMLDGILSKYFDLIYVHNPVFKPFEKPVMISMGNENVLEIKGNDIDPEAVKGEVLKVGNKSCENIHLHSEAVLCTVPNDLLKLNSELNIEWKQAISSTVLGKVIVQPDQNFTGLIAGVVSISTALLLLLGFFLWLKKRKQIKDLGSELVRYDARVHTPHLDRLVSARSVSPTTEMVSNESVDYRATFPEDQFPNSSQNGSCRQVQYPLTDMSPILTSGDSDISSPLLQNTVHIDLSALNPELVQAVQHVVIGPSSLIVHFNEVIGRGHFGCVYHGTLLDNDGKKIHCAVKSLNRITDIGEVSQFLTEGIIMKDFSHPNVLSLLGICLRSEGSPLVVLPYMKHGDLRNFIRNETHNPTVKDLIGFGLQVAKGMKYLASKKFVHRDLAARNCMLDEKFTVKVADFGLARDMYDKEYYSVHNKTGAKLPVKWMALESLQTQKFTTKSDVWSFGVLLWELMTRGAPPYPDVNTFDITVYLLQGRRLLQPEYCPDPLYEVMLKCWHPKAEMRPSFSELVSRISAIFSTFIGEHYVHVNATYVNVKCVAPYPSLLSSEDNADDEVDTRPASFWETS

[9] = target: High affinity nerve growth factor receptor (Homo sapiens, UniProt P04629)
[10] = target: Phosphatidylethanolamine-binding protein 1 (Homo sapiens, UniProt P30086)
Chain of Phosphatidylethanolamine-binding protein 1 (P30086 whole entry): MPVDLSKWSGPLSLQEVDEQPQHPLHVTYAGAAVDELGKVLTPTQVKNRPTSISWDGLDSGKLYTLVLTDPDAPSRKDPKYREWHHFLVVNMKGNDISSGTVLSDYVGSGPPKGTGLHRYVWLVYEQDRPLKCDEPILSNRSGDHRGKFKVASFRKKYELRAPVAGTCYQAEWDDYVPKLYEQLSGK

[11] = target: Proto-oncogene tyrosine-protein kinase receptor Ret (Homo sapiens, UniProt P07949)
[12] = target: Rho-associated protein kinase 1 (Homo sapiens, UniProt Q13464)
Chain of Rho-associated protein kinase 1 (Q13464 whole entry): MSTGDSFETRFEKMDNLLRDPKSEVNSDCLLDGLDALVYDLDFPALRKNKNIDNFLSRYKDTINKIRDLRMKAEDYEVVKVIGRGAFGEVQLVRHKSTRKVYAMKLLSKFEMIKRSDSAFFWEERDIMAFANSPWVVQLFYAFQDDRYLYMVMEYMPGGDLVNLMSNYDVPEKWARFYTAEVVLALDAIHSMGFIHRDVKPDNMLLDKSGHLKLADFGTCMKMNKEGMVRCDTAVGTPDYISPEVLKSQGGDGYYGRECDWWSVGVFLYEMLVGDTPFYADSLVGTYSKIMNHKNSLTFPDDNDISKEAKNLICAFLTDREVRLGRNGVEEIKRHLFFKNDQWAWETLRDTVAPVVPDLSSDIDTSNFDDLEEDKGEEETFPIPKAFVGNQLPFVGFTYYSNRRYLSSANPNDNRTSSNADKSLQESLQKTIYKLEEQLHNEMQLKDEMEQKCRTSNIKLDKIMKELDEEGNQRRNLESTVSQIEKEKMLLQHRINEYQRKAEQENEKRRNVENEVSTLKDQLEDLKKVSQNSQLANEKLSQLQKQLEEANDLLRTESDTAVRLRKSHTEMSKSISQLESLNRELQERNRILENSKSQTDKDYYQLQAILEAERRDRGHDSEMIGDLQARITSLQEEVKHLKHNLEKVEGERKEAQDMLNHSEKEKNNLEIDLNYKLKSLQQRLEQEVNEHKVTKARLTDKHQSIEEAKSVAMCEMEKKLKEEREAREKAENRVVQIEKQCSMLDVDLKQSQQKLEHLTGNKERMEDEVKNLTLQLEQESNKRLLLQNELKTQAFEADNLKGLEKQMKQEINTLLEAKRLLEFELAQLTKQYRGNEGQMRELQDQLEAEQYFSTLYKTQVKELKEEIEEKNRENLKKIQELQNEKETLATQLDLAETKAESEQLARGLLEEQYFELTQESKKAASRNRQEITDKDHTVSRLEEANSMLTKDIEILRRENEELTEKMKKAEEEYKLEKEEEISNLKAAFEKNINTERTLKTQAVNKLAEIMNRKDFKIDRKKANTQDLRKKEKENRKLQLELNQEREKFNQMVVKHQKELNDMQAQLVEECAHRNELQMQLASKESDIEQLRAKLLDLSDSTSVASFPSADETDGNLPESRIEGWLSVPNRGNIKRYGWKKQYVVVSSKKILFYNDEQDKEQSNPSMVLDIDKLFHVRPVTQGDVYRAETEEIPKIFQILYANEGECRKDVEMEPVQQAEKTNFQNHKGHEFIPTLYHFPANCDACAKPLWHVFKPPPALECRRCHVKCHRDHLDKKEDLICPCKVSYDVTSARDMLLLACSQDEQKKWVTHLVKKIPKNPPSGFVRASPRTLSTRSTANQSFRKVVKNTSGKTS

[13] = target: Dual specificity testis-specific protein kinase 2 (Homo sapiens, UniProt Q96S53)
[14] = target: DNA topoisomerase 2-alpha (Homo sapiens, UniProt P11388)
Chain of DNA topoisomerase 2-alpha (P11388 whole entry): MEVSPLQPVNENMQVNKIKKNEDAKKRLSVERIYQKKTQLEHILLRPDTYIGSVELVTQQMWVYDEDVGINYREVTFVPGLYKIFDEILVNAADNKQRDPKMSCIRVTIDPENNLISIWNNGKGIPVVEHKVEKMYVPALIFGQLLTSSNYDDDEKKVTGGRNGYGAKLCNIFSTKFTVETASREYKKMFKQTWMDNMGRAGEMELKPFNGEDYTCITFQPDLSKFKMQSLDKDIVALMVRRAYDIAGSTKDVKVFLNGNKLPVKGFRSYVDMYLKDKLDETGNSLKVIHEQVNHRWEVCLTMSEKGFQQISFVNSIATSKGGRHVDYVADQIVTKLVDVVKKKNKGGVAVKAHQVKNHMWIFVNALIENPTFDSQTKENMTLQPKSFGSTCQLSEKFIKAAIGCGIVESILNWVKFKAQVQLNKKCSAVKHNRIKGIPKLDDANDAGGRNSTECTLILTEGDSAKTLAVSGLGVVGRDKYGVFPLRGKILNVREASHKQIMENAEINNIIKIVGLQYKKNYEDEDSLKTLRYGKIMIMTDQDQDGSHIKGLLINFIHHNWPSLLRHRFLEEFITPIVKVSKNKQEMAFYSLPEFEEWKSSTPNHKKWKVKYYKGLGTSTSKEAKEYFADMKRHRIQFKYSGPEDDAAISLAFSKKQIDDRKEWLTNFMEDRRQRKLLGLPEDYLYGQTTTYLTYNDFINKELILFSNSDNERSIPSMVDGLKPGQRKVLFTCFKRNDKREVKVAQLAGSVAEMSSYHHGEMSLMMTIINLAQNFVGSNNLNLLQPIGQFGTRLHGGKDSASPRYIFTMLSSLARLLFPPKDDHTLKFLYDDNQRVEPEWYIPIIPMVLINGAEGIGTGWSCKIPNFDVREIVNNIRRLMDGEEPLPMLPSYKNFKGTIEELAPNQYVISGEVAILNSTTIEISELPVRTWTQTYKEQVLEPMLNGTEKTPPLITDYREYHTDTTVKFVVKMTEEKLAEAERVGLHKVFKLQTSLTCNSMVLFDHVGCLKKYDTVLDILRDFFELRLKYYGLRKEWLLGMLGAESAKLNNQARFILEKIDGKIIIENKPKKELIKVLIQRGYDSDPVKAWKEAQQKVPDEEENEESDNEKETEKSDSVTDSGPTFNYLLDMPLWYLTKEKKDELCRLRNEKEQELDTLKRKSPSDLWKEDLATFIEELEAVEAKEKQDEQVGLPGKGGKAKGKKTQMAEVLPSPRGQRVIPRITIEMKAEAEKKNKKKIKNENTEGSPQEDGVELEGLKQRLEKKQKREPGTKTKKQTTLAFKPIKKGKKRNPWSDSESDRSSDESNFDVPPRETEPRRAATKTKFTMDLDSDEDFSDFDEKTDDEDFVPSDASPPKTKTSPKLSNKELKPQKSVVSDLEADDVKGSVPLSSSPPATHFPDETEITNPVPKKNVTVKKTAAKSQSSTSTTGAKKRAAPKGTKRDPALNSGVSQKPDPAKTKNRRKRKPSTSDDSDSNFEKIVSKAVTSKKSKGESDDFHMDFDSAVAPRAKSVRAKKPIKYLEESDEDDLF

[15] = target: T2, Cyclin-dependent kinase-like 5 (Homo sapiens, UniProt O76039)
T2 sequence (O76039 whole entry): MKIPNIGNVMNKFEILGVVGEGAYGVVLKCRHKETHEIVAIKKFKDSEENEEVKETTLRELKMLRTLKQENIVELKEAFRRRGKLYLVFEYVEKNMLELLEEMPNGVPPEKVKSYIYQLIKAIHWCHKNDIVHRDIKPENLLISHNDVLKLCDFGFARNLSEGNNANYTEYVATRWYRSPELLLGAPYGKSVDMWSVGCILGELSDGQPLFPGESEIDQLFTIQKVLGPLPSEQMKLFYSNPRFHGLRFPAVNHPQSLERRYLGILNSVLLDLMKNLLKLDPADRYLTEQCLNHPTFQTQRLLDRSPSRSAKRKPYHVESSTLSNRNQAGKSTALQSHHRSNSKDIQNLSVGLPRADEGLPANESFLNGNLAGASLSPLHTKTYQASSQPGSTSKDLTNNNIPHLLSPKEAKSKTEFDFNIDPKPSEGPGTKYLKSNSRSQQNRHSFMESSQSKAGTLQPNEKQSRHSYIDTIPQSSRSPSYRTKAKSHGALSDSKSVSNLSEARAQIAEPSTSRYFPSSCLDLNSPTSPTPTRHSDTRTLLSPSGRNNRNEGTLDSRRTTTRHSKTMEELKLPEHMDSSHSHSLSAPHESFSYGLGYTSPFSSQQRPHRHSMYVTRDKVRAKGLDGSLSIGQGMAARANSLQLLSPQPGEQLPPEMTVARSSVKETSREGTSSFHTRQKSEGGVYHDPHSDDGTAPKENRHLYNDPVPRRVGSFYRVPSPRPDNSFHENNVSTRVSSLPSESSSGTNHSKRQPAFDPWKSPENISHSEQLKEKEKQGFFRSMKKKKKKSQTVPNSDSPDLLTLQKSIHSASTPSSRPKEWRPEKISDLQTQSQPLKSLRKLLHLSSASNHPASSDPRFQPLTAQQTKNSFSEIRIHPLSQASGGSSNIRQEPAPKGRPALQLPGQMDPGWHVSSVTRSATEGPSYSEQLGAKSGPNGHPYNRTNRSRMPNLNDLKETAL

[16] = target: PAS domain-containing serine/threonine-protein kinase (Homo sapiens, UniProt Q96RG2)
[17] = target: Serine/threonine-protein kinase ATR (Homo sapiens, UniProt Q13535)
[18] = target: Serine/threonine-protein kinase 24 (Homo sapiens, UniProt Q9Y6E0)
Chain of Serine/threonine-protein kinase 24 (Q9Y6E0 whole entry): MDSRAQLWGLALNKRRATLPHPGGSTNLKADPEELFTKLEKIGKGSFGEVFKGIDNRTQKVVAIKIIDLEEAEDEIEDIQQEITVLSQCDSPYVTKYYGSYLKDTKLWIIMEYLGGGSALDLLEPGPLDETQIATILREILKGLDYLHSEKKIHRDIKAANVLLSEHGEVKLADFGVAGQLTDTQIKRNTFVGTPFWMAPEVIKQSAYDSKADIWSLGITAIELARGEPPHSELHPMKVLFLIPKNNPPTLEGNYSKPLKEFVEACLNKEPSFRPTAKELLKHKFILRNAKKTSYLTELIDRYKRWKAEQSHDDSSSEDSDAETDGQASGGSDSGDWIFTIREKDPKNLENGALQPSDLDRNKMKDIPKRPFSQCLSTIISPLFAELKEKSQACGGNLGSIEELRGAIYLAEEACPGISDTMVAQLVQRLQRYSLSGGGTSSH
Note: in the data inactive means no Kd found up to 30 µM.

Compound	Kd [1]	Kd [2]	Kd [3]	Kd [4]	Kd [5]	Kd [6]	Kd [7]	Kd [8]	Kd [9]	Kd [10]	Kd [11]	Kd [12]	Kd [13]	Kd [14]	Kd [15]	Kd [16]	Kd [17]	Kd [18]
COc1cc2ncnc3c2cc1OCCCCCN(C)Cc1ccc(Br)cc1N3 [JNJ-26483327]	> 30 µM (inactive)	> 30 µM (inactive)	> 30 µM (inactive)	> 30 µM (inactive)	0.602 µM (active)	> 30 µM (inactive)	> 30 µM (inactive)	> 30 µM (inactive)	> 30 µM (inactive)	> 30 µM (inactive)	2.42 µM (active)	> 30 µM (inactive)	> 30 µM (inactive)	> 30 µM (inactive)	–	–	–	–
CN(c1ncccc1CNc1nc(Nc2ccc3c(c2)CC(=O)N3)ncc1C(F)(F)F)S(C)(=O)=O [PF-00562271]	> 30 µM (inactive)	> 30 µM (inactive)	> 30 µM (inactive)	–	–	> 30 µM (inactive)	–	–	–	> 30 µM (inactive)	–	–	–	–	> 30 µM (inactive)	> 30 µM (inactive)	–	–
CCOc1ccn(-c2ccc(F)cc2)c(=O)c1C(=O)Nc1ccc(Oc2ccnc(N)c2Cl)c(F)c1 [BMS-777607]	> 30 µM (inactive)	–	> 30 µM (inactive)	–	–	> 30 µM (inactive)	> 30 µM (inactive)	0.011 µM (active)	–	> 30 µM (inactive)	–	> 30 µM (inactive)	–	–	> 30 µM (inactive)	–	> 30 µM (inactive)	–
CC1(COc2ccc3c(c2)ncn3-c2ccc3cccc(N4CCC(N)CC4)c3n2)COC1 [CRENOLANIB]	> 30 µM (inactive)	> 30 µM (inactive)	–	–	> 30 µM (inactive)	> 30 µM (inactive)	> 30 µM (inactive)	> 30 µM (inactive)	0.008 µM (active)	> 30 µM (inactive)	0.81 µM (active)	> 30 µM (inactive)	> 30 µM (inactive)	> 30 µM (inactive)	> 30 µM (inactive)	> 30 µM (inactive)	–	0.057 µM (active)
COc1cc2c(N3CCN(C(=O)Nc4ccc(OC(C)C)cc4)CC3)ncnc2cc1OCCCN1CCCCC1 [TANDUTINIB]	–	–	> 30 µM (inactive)	–	–	–	–	–	–	–	–	–	> 30 µM (inactive)	–	–	> 30 µM (inactive)	–	–
COc1cc(F)c(F)c(Nc2ccc(I)cc2F)c1NS(=O)(=O)C1(C[C@H](O)CO)CC1 [REFAMETINIB]	> 30 µM (inactive)	> 30 µM (inactive)	–	> 30 µM (inactive)	> 30 µM (inactive)	> 30 µM (inactive)	> 30 µM (inactive)	> 30 µM (inactive)	> 30 µM (inactive)	> 30 µM (inactive)	> 30 µM (inactive)	> 30 µM (inactive)	–	–	> 30 µM (inactive)	> 30 µM (inactive)	> 30 µM (inactive)	–
CC(C)(O)CC(=O)NCCn1ccc2ncnc(Nc3ccc(Oc4cccc(C(F)(F)F)c4)c(Cl)c3)c21 [TAK-285]	> 30 µM (inactive)	> 30 µM (inactive)	> 30 µM (inactive)	–	–	> 30 µM (inactive)	> 30 µM (inactive)	–	> 30 µM (inactive)	> 30 µM (inactive)	> 30 µM (inactive)	> 30 µM (inactive)	–	–	> 30 µM (inactive)	–	–	> 30 µM (inactive)
C=CC(=O)Nc1cc(Nc2nccc(-c3cn(C)c4ccccc34)n2)c(OC)cc1N(C)CCN(C)C [OSIMERTINIB]	> 30 µM (inactive)	> 30 µM (inactive)	> 30 µM (inactive)	> 30 µM (inactive)	–	> 30 µM (inactive)	> 30 µM (inactive)	–	> 30 µM (inactive)	> 30 µM (inactive)	> 30 µM (inactive)	> 30 µM (inactive)	> 30 µM (inactive)	> 30 µM (inactive)	> 30 µM (inactive)	–	–	–
CC[C@@](C)(Nc1ccnc(-c2c[nH]c3ncccc23)n1)C(=O)NCC(F)(F)F [DECERNOTINIB]	> 30 µM (inactive)	–	> 30 µM (inactive)	–	> 30 µM (inactive)	> 30 µM (inactive)	> 30 µM (inactive)	0.094 µM	> 30 µM (inactive)	–	> 30 µM (inactive)	13.5 µM (active)	–	0.064 µM	> 30 µM (inactive)	> 30 µM (inactive)	–	> 30 µM (inactive)
C[C@@]1(C(=O)Nc2ccc(F)nc2)CCCN1c1nc(Nc2cc(C3CC3)n[nH]2)c2cccn2n1 [BMS-754807]	–	–	> 30 µM (inactive)	–	–	–	–	–	–	> 30 µM (inactive)	–	–	> 30 µM (inactive)	> 30 µM (inactive)	–	–	> 30 µM (inactive)	–
CCc1nc(C(N)=O)c(Nc2ccc(N3CCC(N4CCN(C)CC4)CC3)c(OC)c2)nc1NC1CCOCC1 [GILTERITINIB]	–	–	> 30 µM (inactive)	–	3.5 µM (active)	> 30 µM (inactive)	> 30 µM (inactive)	–	> 30 µM (inactive)	–	0.05 µM (active)	> 30 µM (inactive)	–	> 30 µM (inactive)	> 30 µM (inactive)	–	–	0.23 µM
COc1cccc(Nc2ncnn3ccc(CN4CC[C@@H](N)[C@H](O)C4)c23)c1 [BMS-690514]	> 30 µM (inactive)	–	> 30 µM (inactive)	–	0.225 µM (active)	0.546 µM (active)	> 30 µM (inactive)	–	–	> 30 µM (inactive)	0.034 µM (active)	–	> 30 µM (inactive)	–	> 30 µM (inactive)	–	–	> 30 µM (inactive)
C=CCN(/C=C1/C(=O)O[C@H](COC)[C@@]2(C)C1=C(O)C(=O)C1=C2[C@H](OC(C)=O)C[C@]2(C)C(=O)CC[C@@H]12)CC=C [SONOLISIB]	> 30 µM (inactive)	–	–	–	> 30 µM (inactive)	> 30 µM (inactive)	> 30 µM (inactive)	> 30 µM (inactive)	–	–	> 30 µM (inactive)	> 30 µM (inactive)	–	–	> 30 µM (inactive)	–	–	> 30 µM (inactive)
COc1cc2nccc(Oc3ccc(NC(=O)C4(C(=O)Nc5ccc(F)cc5)CC4)cc3)c2cc1OC [CABOZANTINIB]	> 30 µM (inactive)	> 30 µM (inactive)	> 30 µM (inactive)	> 30 µM (inactive)	–	> 30 µM (inactive)	> 30 µM (inactive)	–	4.11 µM (active)	> 30 µM (inactive)	–	> 30 µM (inactive)	–	–	–	–	–	> 30 µM (inactive)
CCN(CCCOc1ccc2c(Nc3cc(CC(=O)Nc4cccc(F)c4)n[nH]3)ncnc2c1)CCOP(=O)(O)O [BARASERTIB]	> 30 µM (inactive)	> 30 µM (inactive)	> 30 µM (inactive)	–	–	> 30 µM (inactive)	–	–	–	> 30 µM (inactive)	–	–	> 30 µM (inactive)	> 30 µM (inactive)	> 30 µM (inactive)	–	> 30 µM (inactive)	> 30 µM (inactive)
